Reference: patent publication US20210317092A1 (BAYER PHARMA AKTIENGESELLSCHAFT, priority 2016, published 2021)
Read-outs that look alike come from different tables or passages of the source.

Columns and labels:
[1] = molecular target: T1, human Bradykinin B1 receptor (Homo sapiens, UniProt P46663); experiment: Calcium flux Assay (FLIPR) with recombinant CHO-K1 cells expressing human Bradykinin B1 receptor, in presence (hB1 IC50) or absence (hB1 free IC50) of 0.1% BSA; type: cell-based
T1 construct: host or cells: CHO-K1
T1 sequence (P46663 1-353): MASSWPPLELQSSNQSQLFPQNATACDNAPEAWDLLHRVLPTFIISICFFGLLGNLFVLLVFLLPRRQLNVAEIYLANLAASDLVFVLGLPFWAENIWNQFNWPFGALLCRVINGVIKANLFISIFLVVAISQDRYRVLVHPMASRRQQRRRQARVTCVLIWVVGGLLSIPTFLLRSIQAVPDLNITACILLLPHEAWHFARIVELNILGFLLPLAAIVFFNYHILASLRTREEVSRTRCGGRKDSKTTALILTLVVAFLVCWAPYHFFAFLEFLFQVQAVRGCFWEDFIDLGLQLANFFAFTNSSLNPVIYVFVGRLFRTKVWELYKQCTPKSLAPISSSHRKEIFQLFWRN

[2] = molecular target: T2, native human Bradykinin B1 receptor (Homo sapiens, UniProt P46663); experiment: Calcium flux Assay (FLIPR) with human fibroblasts expressing Bradykinin B1 receptor (hB1 IMR-90); type: cell-based; conditions: IMR-90 human fibroblasts expressing native Bradykinin B1 receptor
T2 construct: which express native human Bradykinin B1 receptor after induction with human IL-10; Coriell Institute; host or cells: IMR-90 human foetal lung fibroblasts, cytokine-induced
T2 sequence (P46663 1-353): T1 sequence (P46663 1-353)
Summary of the method: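 IMR-90 human foetal lung fibroblasts induced with 0.35 ng/mL […] for 3 h, Fluo-4/AM-loaded, preincubated with compound (8 concentrations, triplicate) for 30 min at 28 °C, then challenged with Lys-(Des-Arg)-bradykinin at EC90. Ca2+ fluorescence was read at 538 nm; full inhibition set by 20 µM Lys-(Des-Arg-Leu)-bradykinin; IC50 derived.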

[3] = in absence of 0.1% BSA, read-out: hB1 free IC50
[4] = in presence of 0.1% BSA, read-out: hB1 IC50

Row | SMILES | IC50 [1, 3] [nM] | IC50 [1, 4] [nM] | IC50 [2] [nM]
1 | COc1ccc(-c2ccc(NC(=O)C3(c4cccc(Cl)c4)CC3)cc2-c2nnn[nH]2)cc1OC [Example 1, 1-(3-Chlorophenyl)-N-[3′,4′-dimethoxy-2-(1H-tetrazol-5-yl)biphenyl-4-yl]cyclopropanecarboxamide] | 3.35 | 22.6 | 14.2
2 | CCOc1ccc(-c2ccc(NC(=O)C3(c4cccc(Cl)c4)CC3)cc2-c2nnn[nH]2)cn1 [Example 253, 1-(3-Chlorophenyl)-N-[4-(6-ethoxypyridin-3-yl)-3-(1H-tetrazol-5-yl)phenyl]cyclopropanecarboxamide] | 16.1 | 33.5 | 14.9
